Measured values as given in publication PMC12706802, “Ortho-Hydroxyanilides: Slow-Acting, Selective Histone Deacetylase 1/2 Inhibitors Suitable for Photocaging Applications” (ACS Pharmacology & Translational Science, 2025).
Read-outs that look alike come from different tables or passages of the source. Values belong to the molecule of their own block, whether it stands above or below them.

How the values were obtained:
HDAC2 = HDAC2 (Homo sapiens, UniProt Q92769); assay: Fluorescence-based biochemical HDAC enzyme inhibition assay (ZMAL substrate)
Description: (§2) First, the inhibitory activity and isoform selectivity of compounds and controls (see Figure ) was evaluated in a fluorescence-based biochemical HDAC inhibition assay against recombinant HDAC1, HDAC2, HDAC3, and HDAC6. […] First, 3-fold serial dilutions of test compounds were prepared in DMSO. […] IC50 values were determined by generating normalized dose–response curves using the three-parameter logistic equation (GraphPad Prism 8.0, San Diego, USA).

HDAC1 = HDAC1 (Homo sapiens, UniProt Q13547); assay: as above
Description: as §2

HDACs in MV-3 cells = assay: HDAC whole cell inhibition assay; conditions: for EC50: Homo sapiens, MV-3, light or radiation study, read-out: whole-cell HDAC inhibition EC50, MV-3
Description: (§3) Furthermore, we determined the EC50 values in the nontumorigenic cell line HEK293 and in the hematological cancer cell line MM.1S.
(§4) For this purpose, 3-fold serial dilutions of test compounds (DMSO) were prepared and added at a volume of 0.5 μL to the cells. […] MAL was used in a final concentration of 0.3 mM in the respective cell culture medium with 0.5% IGEPAL CA-630 (Catalog# J61055, Alfa Aesar). […] The obtained data were normalized to vehicle treated cells, considering 100% enzyme activity. IC50 values were determined by generating dose–response curves using the four-parameter logistic equation (GraphPad Prism 8.0, San Diego, USA).

human recombinant HDAC3 = human recombinant HDAC3 (Homo sapiens, UniProt O15379); assay: Fluorescence-based biochemical HDAC enzyme inhibition assay (ZMAL substrate)
Description: as §2

[1] = system: HDACs in MDA-MB-231 cells; assay: HDAC whole cell inhibition assay; conditions: for EC50: Homo sapiens, MDA-MB-231, light or radiation study, read-out: whole-cell HDAC inhibition EC50, MDA-MB-231
Description: as §3, §4

[2] = HPLC photolysis experiments (release of ST13 from ST17); format: physicochemical; conditions: 10 min
Description: The deprotection of ST17 and its effective conversion (82%) to its parent HDAC inhibitor ST13 upon irradiation (10 min; λ = 365 nm) was confirmed by high-performance liquid chromatography (HPLC) experiments (see Figure S3, Supporting Information). Next, ST17 was tested for its inhibitory activity against HDAC1, HDAC2, HDAC3, and HDAC6 with and without irradiation at 365 nm (see Table ).
For the deprotection experiments, 10 μL of a 1 mM ST17 solution in DMSO were irradiated for 10 min. Subsequently, samples were diluted with acetonitrile to a final concentration of 100 μM and analyzed via HPLC/UV (λquant = 250 nm) using the area under the curve (area [mAU × min]) for quantification. The amount of ST13 released from the photocager ST17 was quantified using a calibration curve of ST13 (see Figure S2).

MDA-MB-231 cells = assay: MTT cell viability (antiproliferative) assay; format: cell-based; conditions: Homo sapiens, MDA-MB-231, light or radiation study
Description: (§1) To evaluate the cytotoxicity of the selected HDAC inhibitors, compounds were tested for their antiproliferative activity against MV-3 and MDA-MB-231 cells using the MTT assay. […] MTT (3-(4,5-dimethylthiazol-2-yl)-2,5-diphenyltetrazolium bromide; Catalog# A2231; BioChemica, Applichem GmbH, Darmstadt, Germany) was utilized to measure the antiproliferative effect. Depending on the incubation time, 3000 MV-3 cells (72 h), 2000 MV-3 cells (96 h) or 1000 MV-3 cells (120 h) per well were seeded in 96-well plates (Starlab GmbH, Hamburg, Germany) with each well containing 199 μL of volume. […] Next, predilutions of the test compounds were prepared in DMSO. […] Subsequently, cells were treated with 1.0 μL of the dilution series of the test compounds. […] After removing the supernatant, formazan was solubilized in 200.0 μL DMSO. The absorbance was measured at 570 nm with background subtraction at 690 nm using a Multiskan microplate photometer (Thermo Fisher Scientific, Waltham, MA, USA). The obtained data were normalized to PBS, considering 100% viability.

MV-3 cells = assay: MTT cell viability (antiproliferative) assay; format: cell-based, human; conditions: Homo sapiens, read-out: MV-3 EC50 (MTT)
Description: as §1

human recombinant HDAC6 = target: T1, human recombinant HDAC6 (Homo sapiens, UniProt Q9UBN7); assay: Fluorescence-based biochemical HDAC enzyme inhibition assay (ZMAL substrate)
T1 sequence (Q9UBN7 1-1215): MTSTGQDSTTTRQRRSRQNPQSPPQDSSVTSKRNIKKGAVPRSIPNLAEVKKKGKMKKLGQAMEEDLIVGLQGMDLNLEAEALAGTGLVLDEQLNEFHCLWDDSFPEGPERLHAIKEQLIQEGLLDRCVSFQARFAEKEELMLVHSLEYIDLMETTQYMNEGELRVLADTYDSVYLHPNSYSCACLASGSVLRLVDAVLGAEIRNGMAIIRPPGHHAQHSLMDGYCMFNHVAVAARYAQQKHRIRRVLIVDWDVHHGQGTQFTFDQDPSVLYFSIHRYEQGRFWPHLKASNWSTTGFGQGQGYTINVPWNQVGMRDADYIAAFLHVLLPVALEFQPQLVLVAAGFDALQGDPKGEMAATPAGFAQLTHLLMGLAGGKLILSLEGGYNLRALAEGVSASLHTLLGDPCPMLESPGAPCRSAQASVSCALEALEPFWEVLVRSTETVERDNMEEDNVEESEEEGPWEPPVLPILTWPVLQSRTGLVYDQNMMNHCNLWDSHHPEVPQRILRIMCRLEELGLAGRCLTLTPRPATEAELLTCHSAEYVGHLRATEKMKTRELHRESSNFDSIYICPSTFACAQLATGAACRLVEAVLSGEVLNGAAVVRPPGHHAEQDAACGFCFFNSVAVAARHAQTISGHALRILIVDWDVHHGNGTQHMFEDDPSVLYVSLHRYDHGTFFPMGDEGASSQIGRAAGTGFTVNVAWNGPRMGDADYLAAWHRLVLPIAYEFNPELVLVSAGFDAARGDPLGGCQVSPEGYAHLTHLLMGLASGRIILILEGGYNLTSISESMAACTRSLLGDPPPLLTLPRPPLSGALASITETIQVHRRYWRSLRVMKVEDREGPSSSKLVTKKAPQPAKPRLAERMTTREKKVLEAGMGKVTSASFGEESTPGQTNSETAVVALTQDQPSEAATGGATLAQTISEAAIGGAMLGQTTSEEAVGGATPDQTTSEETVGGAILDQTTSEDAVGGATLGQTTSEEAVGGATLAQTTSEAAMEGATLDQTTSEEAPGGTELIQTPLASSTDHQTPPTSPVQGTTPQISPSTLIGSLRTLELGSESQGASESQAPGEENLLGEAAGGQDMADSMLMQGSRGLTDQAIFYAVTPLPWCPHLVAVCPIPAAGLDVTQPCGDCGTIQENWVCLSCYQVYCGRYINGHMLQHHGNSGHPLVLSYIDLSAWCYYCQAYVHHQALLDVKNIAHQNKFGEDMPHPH
Description: as §2

HDAC6 = system: HDAC6; design: method as in earlier work; conditions: Figure 1; ref 'Data taken from refs' (numbers not given); cited from earlier work
[3] = HDAC2 IC50, preincubation of enzyme and inhibitor 1 h at RT, no irradiation
[4] = HDAC1 IC50, preincubation of enzyme and inhibitor 1 h at RT, no irradiation

HDAC2, sequence (Q92769 whole entry): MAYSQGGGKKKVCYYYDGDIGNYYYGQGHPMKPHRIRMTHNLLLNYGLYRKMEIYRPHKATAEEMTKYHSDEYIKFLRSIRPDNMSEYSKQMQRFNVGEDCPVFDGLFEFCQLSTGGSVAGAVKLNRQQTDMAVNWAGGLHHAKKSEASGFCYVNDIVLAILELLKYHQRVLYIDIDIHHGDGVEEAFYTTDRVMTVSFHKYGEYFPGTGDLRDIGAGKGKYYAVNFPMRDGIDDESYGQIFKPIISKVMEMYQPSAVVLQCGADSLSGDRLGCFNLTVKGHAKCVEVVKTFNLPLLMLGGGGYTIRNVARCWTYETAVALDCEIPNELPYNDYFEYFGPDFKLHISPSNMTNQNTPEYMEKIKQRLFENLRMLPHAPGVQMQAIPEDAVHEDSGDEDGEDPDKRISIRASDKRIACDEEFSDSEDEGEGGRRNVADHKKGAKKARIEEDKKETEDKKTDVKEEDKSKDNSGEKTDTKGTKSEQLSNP
HDAC1, sequence (Q13547 whole entry): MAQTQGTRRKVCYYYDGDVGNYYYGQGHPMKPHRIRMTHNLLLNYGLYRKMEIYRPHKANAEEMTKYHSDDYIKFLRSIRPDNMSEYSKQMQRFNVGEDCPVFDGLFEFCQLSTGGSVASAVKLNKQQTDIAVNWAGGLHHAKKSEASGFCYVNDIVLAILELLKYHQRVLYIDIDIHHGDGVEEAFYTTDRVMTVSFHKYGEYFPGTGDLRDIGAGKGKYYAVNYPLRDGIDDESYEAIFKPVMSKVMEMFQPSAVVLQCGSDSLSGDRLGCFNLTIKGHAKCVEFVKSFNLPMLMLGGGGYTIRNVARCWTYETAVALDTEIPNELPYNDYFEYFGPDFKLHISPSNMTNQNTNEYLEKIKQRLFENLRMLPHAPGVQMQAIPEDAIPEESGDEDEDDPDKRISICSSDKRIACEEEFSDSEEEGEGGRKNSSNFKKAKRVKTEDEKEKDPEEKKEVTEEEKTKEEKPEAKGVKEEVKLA
human recombinant HDAC3, sequence (O15379 whole entry): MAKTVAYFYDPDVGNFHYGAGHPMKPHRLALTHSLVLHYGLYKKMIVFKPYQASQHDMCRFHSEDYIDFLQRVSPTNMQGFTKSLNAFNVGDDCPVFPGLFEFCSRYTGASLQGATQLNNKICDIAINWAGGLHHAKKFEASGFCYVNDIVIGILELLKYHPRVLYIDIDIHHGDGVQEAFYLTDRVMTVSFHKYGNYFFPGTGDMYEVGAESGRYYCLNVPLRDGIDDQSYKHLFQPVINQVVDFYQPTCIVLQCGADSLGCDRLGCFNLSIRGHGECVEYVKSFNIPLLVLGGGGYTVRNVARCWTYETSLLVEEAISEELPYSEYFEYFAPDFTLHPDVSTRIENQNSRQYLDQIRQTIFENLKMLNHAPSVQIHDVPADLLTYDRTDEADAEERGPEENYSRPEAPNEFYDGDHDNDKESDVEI
human recombinant HDAC3, sequence (Q9Y618 395-489 partner limits assumed): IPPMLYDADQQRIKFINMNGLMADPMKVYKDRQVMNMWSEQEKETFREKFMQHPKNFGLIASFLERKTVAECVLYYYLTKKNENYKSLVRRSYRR

- IC50 (HDAC2; [3]): > 10000 nM
- IC50 (HDAC1; [4]): > 10000 nM
Compound: CC(=O)Nc1ccc(C(=O)Nc2ccccc2O)cc1 [ST01, 4-Acetamido-N-(2-hydroxyphenyl)-benzamide]

- EC50 (HDACs in MV-3 cells; 18 h): 5.98 ± 1.24 µM
- EC50 (HDACs in MV-3 cells): 0.392 ± 0.07 µM
- IC50 (human recombinant HDAC3; HDAC3 IC50, preincubation of enzyme and inhibitor 1 h at RT, no irradiation): > 10 µM
- IC50 (human recombinant HDAC3; HDAC3 IC50, with UV irradiation (10 min, 365 nm) of ST17, preincubation 1 h at RT): 8.58 ± 0.76 µM
- EC50 ([1]; 18 h): 3550 ± 2000 nM
- EC50 [1]: 783 ± 139 nM
- conversion to parent HDAC inhibitor ST13 upon irradiation (HPLC) ([2]; λ = 365 nm, in DMSO, room temperature): 82%
- concentration of released ST13 following irradiation (HPLC) ([2]; initial ST17 concentration 100 µM, 365 nm): 81.67 µM
- EC50 (MDA-MB-231 cells; incubation time 120 h, no irradiation): 11.2 ± 1.7 µM
- EC50 (MDA-MB-231 cells; with UV irradiation (10 min, 365 nm) of ST17, 120 h): 6.78 ± 0.58 µM
- IC50 (HDAC2; [3]): 1710 ± 830 nM
- IC50 (HDAC2; HDAC2 IC50, with UV irradiation (10 min, 365 nm) of ST17, preincubation 1 h at RT): 72 ± 12 nM
- IC50 (HDAC1; [4]): 840 ± 308 nM
- IC50 (HDAC1; HDAC1 IC50, with UV irradiation (10 min, 365 nm) of ST17, preincubation 1 h at RT): 40 ± 8 nM
- IC50 (human recombinant HDAC6): > 10 µM
- IC50 (human recombinant HDAC6; read-out: HDAC6 IC50, with UV irradiation (10 min, 365 nm) of ST17, preincubation 15 min at RT): > 10 µM
Compound: COc1cc(COc2ccc(-c3ccccc3)cc2NC(=O)c2ccc(NC(C)=O)cc2)c([N+](=O)[O-])cc1OC [ST17, 4-Acetamido-N-(4-((4,5-dimethoxy-2-nitrobenzyl)-oxy)-[1,1′-biphenyl]-3-yl)-benzamide]
- increase of activity by light-induced activation compared to untreated ST17, MV-3 (HDACs in MV-3 cells; whole cell HDAC assay): 15 fold
- increase of activity by light-induced activation compared to untreated ST17, MDA-MB-231 ([1]; whole cell HDAC assay): 4.5 fold
- EC50 (MV-3 cells; MV-3, light or radiation study, incubation time 120 h, no irradiation): 16.2 ± 4.1 µM
- EC50 (MV-3 cells; MV-3, light or radiation study, with UV irradiation (10 min, 365 nm) of ST17, 120 h): 4.64 ± 0.93 µM

Compound: CCCNNC(=O)c1ccc(CN(CC(=O)NCc2ccccc2)C(=O)c2ccc(N(C)C)cc2)cc1 [compound 5]
- IC50 (HDAC6): 10 µM

Compound: O=C(CCCCCCC(=O)Nc1ccccc1)NO [vorinostat, reference compound]
- EC50 (MV-3 cells; MV-3, 72 h): 1.88 ± 0.73 µM
